# Test results from ChEMBL document CHEMBL2375284, “Novel hybrids of natural isochroman-4-one bearing N-substituted isopropanolamine as potential antihypertensive candidates” (Bioorg Med Chem, 2013).
# Legend:
# Rattus norvegicus [1] = assay: Antihypertensive activity in rat spontaneous hypertensive model assessed as diastolic arterial blood pressure at 80 mg/kg, po measured at 6 hrs by tail-cuff method (reference value: 141.2 +/- 7.34 mmHg); format: functional, Artery
# Rattus norvegicus [2] = assay: Toxicity in rat spontaneous hypertensive model assessed as heart rate at 80 mg/kg, po measured at 2 hrs by tail-cuff method (reference value: 399.5 +/- 19.68 bpm); format: organism-based; set-up: dose 80 mg/kg, route oral; conditions: in vivo
# Rattus norvegicus [3] = assay: Antihypertensive activity in rat spontaneous hypertensive model assessed as mean arterial blood pressure at 80 mg/kg, po measured at 2 hrs by tail-cuff method (reference value: 157.41 +/- 9.62 mmHg); format: functional, Artery
# Rattus norvegicus [4] = assay: Antihypertensive activity in rat spontaneous hypertensive model assessed as systolic arterial blood pressure at 80 mg/kg, po measured at 8 hrs by tail-cuff method (reference value: 174 +/- 12.1 mmHg); format: functional, Artery
# Rattus norvegicus [5] = assay: Antihypertensive activity in rat spontaneous hypertensive model assessed as systolic arterial blood pressure at 80 mg/kg, po measured at 6 hrs by tail-cuff method (reference value: 176.7 +/- 15.21 mmHg); format: functional, Artery
# Rattus norvegicus [6] = assay: Antihypertensive activity in rat spontaneous hypertensive model assessed as diastolic arterial blood pressure at 80 mg/kg, po measured at 1 hr by tail-cuff method (reference value: 146.2 +/- 13.19 mmHg); format: functional, Artery
# Rattus norvegicus [7] = assay: Toxicity in rat spontaneous hypertensive model assessed as heart rate at 80 mg/kg, po measured at 8 hrs by tail-cuff method (reference value: 397.2 +/- 24.87 bpm); format: organism-based; set-up: dose 80 mg/kg, route oral; conditions: in vivo
# Rattus norvegicus [8] = assay: Antihypertensive activity in rat spontaneous hypertensive model assessed as mean arterial blood pressure at 80 mg/kg, po measured at 0.5 hrs by tail-cuff method (reference value: 156.2 +/- 7.21 mmHg); format: functional, Artery
# Rattus norvegicus [9] = assay: Antihypertensive activity in rat spontaneous hypertensive model assessed as systolic arterial blood pressure at 80 mg/kg, po measured at 2 hrs by tail-cuff method (reference value: 172.6 +/- 17.3 mmHg); format: functional, Artery
# Rattus norvegicus [10] = assay: Antihypertensive activity in rat spontaneous hypertensive model assessed as systolic arterial blood pressure at 80 mg/kg, po measured at 0.5 hrs by tail-cuff method (reference value: 178.5 +/- 10.13 mmHg); format: functional, Artery
# Rattus norvegicus [11] = assay: Antihypertensive activity in rat spontaneous hypertensive model assessed as mean arterial blood pressure at 80 mg/kg, po measured at 8 hrs by tail-cuff method (reference value: 155.8 +/- 11.54 mmHg); format: functional, Artery
# Rattus norvegicus [12] = assay: Antihypertensive activity in rat spontaneous hypertensive model assessed as diastolic arterial blood pressure at 80 mg/kg, po measured at 4 hrs by tail-cuff method (reference value: 141.4 +/- 7.11 mmHg); format: functional, Artery
# Rattus norvegicus [13] = assay: Antihypertensive activity in rat spontaneous hypertensive model assessed as diastolic arterial blood pressure at 80 mg/kg, po measured at 2 hrs by tail-cuff method (reference value: 142.9 +/- 18.07 mmHg); format: functional, Artery
# Rattus norvegicus [14] = assay: Antihypertensive activity in rat spontaneous hypertensive model assessed as mean arterial blood pressure at 80 mg/kg, po measured at 4 hrs by tail-cuff method (reference value: 154.4 +/- 20.1 mmHg); format: functional, Artery
# Rattus norvegicus [15] = assay: Antihypertensive activity in rat spontaneous hypertensive model assessed as systolic arterial blood pressure at 80 mg/kg, po measured at 4 hrs by tail-cuff method (reference value: 172.9 +/- 10.21 mmHg); format: functional, Artery
# Rattus norvegicus [16] = assay: Toxicity in rat spontaneous hypertensive model assessed as heart rate at 80 mg/kg, po measured at 1 hr by tail-cuff method (reference value: 403.9 +/- 12.41 bpm); format: organism-based; set-up: dose 80 mg/kg, route oral; conditions: in vivo
# Rattus norvegicus [17] = assay: Toxicity in rat spontaneous hypertensive model assessed as heart rate at 80 mg/kg, po measured at 0.5 hrs by tail-cuff method (reference value: 406.5 +/- 13.15 bpm); format: organism-based; set-up: dose 80 mg/kg, route oral; conditions: in vivo
# Rattus norvegicus [18] = assay: Antihypertensive activity in rat spontaneous hypertensive model assessed as diastolic arterial blood pressure at 80 mg/kg, po measured at 0.5 hrs by tail-cuff method (reference value: 138.7 +/- 9.2 mmHg); format: functional, Artery
# Rattus norvegicus [19] = assay: Antihypertensive activity in rat spontaneous hypertensive model assessed as systolic arterial blood pressure at 80 mg/kg, po measured at 1 hr by tail-cuff method (reference value: 181.2 +/- 16.37 mmHg); format: functional, Artery
# Rattus norvegicus [20] = assay: Antihypertensive activity in rat spontaneous hypertensive model assessed as diastolic arterial blood pressure at 80 mg/kg, po measured at 8 hrs by tail-cuff method (reference value: 135.3 +/- 8.21 mmHg); format: functional, Artery
# Rattus norvegicus [21] = assay: Antihypertensive activity in rat spontaneous hypertensive model assessed as mean arterial blood pressure at 80 mg/kg, po measured at 1 hr by tail-cuff method (reference value: 158.9 +/- 13.65 mmHg); format: functional, Artery
# Rattus norvegicus [22] = assay: Toxicity in rat spontaneous hypertensive model assessed as heart rate at 80 mg/kg, po measured at 6 hrs by tail-cuff method (reference value: 405.1 +/- 24 bpm); format: organism-based; set-up: dose 80 mg/kg, route oral; conditions: in vivo
# Rattus norvegicus [23] = assay: Antihypertensive activity in rat spontaneous hypertensive model assessed as mean arterial blood pressure at 80 mg/kg, po measured at 6 hrs by tail-cuff method (reference value: 155.8 +/- 7.97 mmHg); format: functional, Artery
# Rattus norvegicus [24] = assay: Toxicity in rat spontaneous hypertensive model assessed as heart rate at 80 mg/kg, po measured at 4 hrs by tail-cuff method (reference value: 403.1 +/- 15.92 bpm); format: organism-based; set-up: dose 80 mg/kg, route oral; conditions: in vivo
# Rattus norvegicus [25] = assay: Antihypertensive activity in rat spontaneous hypertensive model assessed as mean arterial blood pressure at 20 mg/kg, po measured at 4 hrs by tail-cuff method (reference value: 154.4 +/- 20.1 mmHg); format: functional, Artery
# Rattus norvegicus [26] = assay: Antihypertensive activity in rat spontaneous hypertensive model assessed as mean arterial blood pressure at 20 mg/kg, po measured at 0.5 hrs by tail-cuff method (reference value: 156.2 +/- 7.21 mmHg); format: functional, Artery
# Rattus norvegicus [27] = assay: Antihypertensive activity in rat spontaneous hypertensive model assessed as systolic arterial blood pressure at 20 mg/kg, po measured at 1 hr by tail-cuff method (reference value: 181.2 +/- 16.37 mmHg); format: functional, Artery
# Rattus norvegicus [28] = assay: Antihypertensive activity in rat spontaneous hypertensive model assessed as systolic arterial blood pressure at 20 mg/kg, po measured at 0.5 hrs by tail-cuff method (reference value: 178.5 +/- 10.13 mmHg); format: functional, Artery
# Rattus norvegicus [29] = assay: Antihypertensive activity in rat spontaneous hypertensive model assessed as mean arterial blood pressure at 20 mg/kg, po measured at 2 hrs by tail-cuff method (reference value: 157.41 +/- 9.62 mmHg); format: functional, Artery
# Rattus norvegicus [30] = assay: Antihypertensive activity in rat spontaneous hypertensive model assessed as diastolic arterial blood pressure at 20 mg/kg, po measured at 4 hrs by tail-cuff method (reference value: 141.4 +/- 7.11 mmHg); format: functional, Artery
# Rattus norvegicus [31] = assay: Toxicity in rat spontaneous hypertensive model assessed as heart rate at 20 mg/kg, po measured at 6 hrs by tail-cuff method (reference value: 405.1 +/- 24 bpm); format: organism-based; set-up: dose 20 mg/kg, route oral; conditions: in vivo
# Rattus norvegicus [32] = assay: Antihypertensive activity in rat spontaneous hypertensive model assessed as systolic arterial blood pressure at 20 mg/kg, po measured at 2 hrs by tail-cuff method (reference value: 172.6 +/- 17.3 mmHg); format: functional, Artery
# Rattus norvegicus [33] = assay: Antihypertensive activity in rat spontaneous hypertensive model assessed as diastolic arterial blood pressure at 20 mg/kg, po measured at 0.5 hrs by tail-cuff method (reference value: 138.7 +/- 9.2 mmHg); format: functional, Artery
# Rattus norvegicus [34] = assay: Antihypertensive activity in rat spontaneous hypertensive model assessed as diastolic arterial blood pressure at 20 mg/kg, po measured at 6 hrs by tail-cuff method (reference value: 141.2 +/- 7.34 mmHg); format: functional, Artery
# Rattus norvegicus [35] = assay: Toxicity in rat spontaneous hypertensive model assessed as heart rate at 20 mg/kg, po measured at 2 hrs by tail-cuff method (reference value: 399.5 +/- 19.68 bpm); format: organism-based; set-up: dose 20 mg/kg, route oral; conditions: in vivo
# Rattus norvegicus [36] = assay: Antihypertensive activity in rat spontaneous hypertensive model assessed as systolic arterial blood pressure at 20 mg/kg, po measured at 6 hrs by tail-cuff method (reference value: 176.7 +/- 15.21 mmHg); format: functional, Artery
# Rattus norvegicus [37] = assay: Antihypertensive activity in rat spontaneous hypertensive model assessed as mean arterial blood pressure at 20 mg/kg, po measured at 6 hrs by tail-cuff method (reference value: 155.8 +/- 7.97 mmHg); format: functional, Artery
# Rattus norvegicus [38] = assay: Toxicity in rat spontaneous hypertensive model assessed as heart rate at 20 mg/kg, po measured at 0.5 hrs by tail-cuff method (reference value: 406.5 +/- 13.15 bpm); format: organism-based; set-up: dose 20 mg/kg, route oral; conditions: in vivo
# Rattus norvegicus [39] = assay: Antihypertensive activity in rat spontaneous hypertensive model assessed as diastolic arterial blood pressure at 20 mg/kg, po measured at 1 hr by tail-cuff method (reference value: 146.2 +/- 13.19 mmHg); format: functional, Artery
# Rattus norvegicus [40] = assay: Antihypertensive activity in rat spontaneous hypertensive model assessed as mean arterial blood pressure at 20 mg/kg, po measured at 1 hr by tail-cuff method (reference value: 158.9 +/- 13.65 mmHg); format: functional, Artery
# Rattus norvegicus [41] = assay: Antihypertensive activity in rat spontaneous hypertensive model assessed as systolic arterial blood pressure at 20 mg/kg, po measured at 4 hrs by tail-cuff method (reference value: 172.9 +/- 10.21 mmHg); format: functional, Artery
# Rattus norvegicus [42] = assay: Toxicity in rat spontaneous hypertensive model assessed as heart rate at 20 mg/kg, po measured at 1 hr by tail-cuff method (reference value: 403.9 +/- 12.41 bpm); format: organism-based; set-up: dose 20 mg/kg, route oral; conditions: in vivo
# Rattus norvegicus [43] = assay: Antihypertensive activity in rat spontaneous hypertensive model assessed as systolic arterial blood pressure at 20 mg/kg, po measured at 8 hrs by tail-cuff method (reference value: 174 +/- 12.1 mmHg); format: functional, Artery
# Rattus norvegicus [44] = assay: Antihypertensive activity in rat spontaneous hypertensive model assessed as diastolic arterial blood pressure at 20 mg/kg, po measured at 2 hrs by tail-cuff method (reference value: 142.9 +/- 18.07 mmHg); format: functional, Artery
# Rattus norvegicus [45] = assay: Toxicity in rat spontaneous hypertensive model assessed as heart rate at 20 mg/kg, po measured at 4 hrs by tail-cuff method (reference value: 403.1 +/- 15.92 bpm); format: organism-based; set-up: dose 20 mg/kg, route oral; conditions: in vivo
# Rattus norvegicus [46] = assay: Antihypertensive activity in rat spontaneous hypertensive model assessed as diastolic arterial blood pressure at 20 mg/kg, po measured at 8 hrs by tail-cuff method (reference value: 135.3 +/- 8.21 mmHg); format: functional, Artery
# Rattus norvegicus [47] = assay: Antihypertensive activity in rat spontaneous hypertensive model assessed as mean arterial blood pressure at 20 mg/kg, po measured at 8 hrs by tail-cuff method (reference value: 155.8 +/- 11.54 mmHg); format: functional, Artery
# Rattus norvegicus [48] = assay: Toxicity in rat spontaneous hypertensive model assessed as heart rate at 20 mg/kg, po measured at 8 hrs by tail-cuff method (reference value: 397.2 +/- 24.87 bpm); format: organism-based; set-up: dose 20 mg/kg, route oral; conditions: in vivo
compound,measurement,setting,value
COc1ccc2c(c1OCC(O)CNC(C)C)COC(C)C2=O (stereo not drawn),Activity,Rattus norvegicus [1],124.4 mmHg
same,Activity,Rattus norvegicus [2],368.8 bpm
same,Activity,Rattus norvegicus [3],129.3 mmHg
same,Activity,Rattus norvegicus [4],166.3 mmHg
same,Activity,Rattus norvegicus [5],168 mmHg
same,Activity,Rattus norvegicus [6],114.6 mmHg
same,Activity,Rattus norvegicus [7],372.8 bpm
same,Activity,Rattus norvegicus [8],144.8 mmHg
same,Activity,Rattus norvegicus [9],169 mmHg
same,Activity,Rattus norvegicus [10],175.3 mmHg
same,Activity,Rattus norvegicus [11],137.4 mmHg
same,Activity,Rattus norvegicus [12],117.7 mmHg
same,Activity,Rattus norvegicus [13],109.5 mmHg
same,Activity,Rattus norvegicus [14],135.4 mmHg
same,Activity,Rattus norvegicus [15],170.9 mmHg
same,Activity,Rattus norvegicus [16],375 bpm
same,Activity,Rattus norvegicus [17],383.4 bpm
same,Activity,Rattus norvegicus [18],129.6 mmHg
same,Activity,Rattus norvegicus [19],170.1 mmHg
same,Activity,Rattus norvegicus [20],122.9 mmHg
same,Activity,Rattus norvegicus [21],133.1 mmHg
same,Activity,Rattus norvegicus [22],374.7 bpm
same,Activity,Rattus norvegicus [23],138.9 mmHg
same,Activity,Rattus norvegicus [24],373.2 bpm
CC(C)NCC(O)COc1cccc2ccccc12 (stereo not drawn) [PROPRANOLOL],Activity,Rattus norvegicus [25],108.3 mmHg
same,Activity,Rattus norvegicus [26],145 mmHg
same,Activity,Rattus norvegicus [27],156.8 mmHg
same,Activity,Rattus norvegicus [28],168.7 mmHg
same,Activity,Rattus norvegicus [29],116.8 mmHg
same,Activity,Rattus norvegicus [30],88.3 mmHg
same,Activity,Rattus norvegicus [31],360.1 bpm
same,Activity,Rattus norvegicus [32],160.6 mmHg
same,Activity,Rattus norvegicus [33],127.2 mmHg
same,Activity,Rattus norvegicus [34],100.3 mmHg
same,Activity,Rattus norvegicus [35],350.6 bpm
same,Activity,Rattus norvegicus [36],161 mmHg
same,Activity,Rattus norvegicus [37],120.9 mmHg
same,Activity,Rattus norvegicus [38],340 bpm
same,Activity,Rattus norvegicus [39],105.5 mmHg
same,Activity,Rattus norvegicus [40],122.6 mmHg
same,Activity,Rattus norvegicus [41],158.4 mmHg
same,Activity,Rattus norvegicus [42],339.9 bpm
same,Activity,Rattus norvegicus [43],163.9 mmHg
same,Activity,Rattus norvegicus [44],94.1 mmHg
same,Activity,Rattus norvegicus [45],349.6 bpm
same,Activity,Rattus norvegicus [46],116.9 mmHg
same,Activity,Rattus norvegicus [47],132.6 mmHg
same,Activity,Rattus norvegicus [48],362.3 bpm
